The results in this text go back to patent publication US20080234243A1, “METHOD OF TREATING AMYLOIDOSIS MEDIATED DISEASES” (priority 2007, published 2008).

The assay has as its system soluble Aβ (1-40) peptide. The assay can be described thus: In vivo effect on soluble Aβ (1-40) in whole brain homogenates of CB.17 SCID mice (ELISA). Particulars: CB17 SCID mice, oral, 300 mg/kg/day for 20 days, brain extracts; P=0.012 vs. control. As for the experimental part: FIG. 1 provides a graph showing a decrease in soluble AD levels in CB17 SCID mice treated with 2ME2. Mice (5 animals per group) were treated orally for 5 or 20 days with 300 mg/kg/day 2ME2, and soluble Aβ levels were measure in whole brain homogenates. (*P=0.012 vs. control)
CB. 17 SCID mice were treated orally for 5 or 20 days with 300 mg/kg/day 2ME2. At the end of treatment mice were humanely euthanized, and mouse brain was recovered surgically. This tissue was immediately frozen on dry ice until processing for ELISA analysis of soluble Aβ peptide. Serum is also routinely collected for later analysis as well.
Preparation of the Brain Extract Solution
1. Homogenize brains into 15 vol of ice cold TBS, pH 7.4 containing leupeptide (10 ug/ml) and aprotinin (20 ug/ml).
2. Transfer to microcentrifuge tubes and spin 20,000 g for 20 min at 4° C.
3. Remove supernatant (TBS Extract) to ice.
4. Wash once with cold TBS and resuspend in 15 vol of TBS/1% Triton X-100 and protease inhibitors. Incubate 30 min at 4° C. with agitation.
5. Transfer to microcentrifuge tubes and spin 20,000 g for 20 min at 4° C.
6. Remove supernatant (Triton Extract) to ice. […]
Harvested brains were homogenized with a tissue homogenizer, and subjected to serial extraction with TBS followed by TBS/Triton X-100. […] Brains were harvested, and soluble Aβ was assessed. […]
Background: In an ELISA, binding on a coated surface is turned into a signal by an enzyme label.

SMILES strings stand for the structures.

On to `COc1cc2c(cc1O)CC[C@@H]1[C@@H]2CC[C@]2(C)[C@@H](O)CC[C@@H]12` [2ME2, 2-methoxyestradiol], for which the “decrease in the levels of soluble Aβ (inhibition)” value is 46%.
